According to publication PMC4574934, “Gliadin Induces Neutrophil Migration via Engagement of the Formyl Peptide Receptor, FPR1” (PLoS ONE, 2015):

Tested on: human neutrophils
Assay: EZ-TAXIScan chemotaxis assay, human neutrophils
Type: cell-based
Parameters: key to Chemotactic response: moderate (++) response; stronger chemotactic response (+++)
Conditions: for Chemotaxis Index (CI), Control / Speed, Control: no cyclosporine H; for Chemotactic response / Chemotaxis Index (CI) / Speed: Table 2, peptide 20 ng/mL, 1-3 experiments
Protocol: Heparinized venous blood was centrifuged over a Ficoll-Paque PLUS gradient (d = 1.077 g/ml, GE Healthcare, Boston, MA). The sedimented granulocyte/erythrocyte fraction was collected, and erythrocytes were lysed with cold lysis buffer (155 mM NH4Cl, 10 mM KHCO3, 0.1 mM EDTA). Cells were resuspended in HBSS without Ca^2+/Mg^2+ (Thermo Scientific, Tewksbury, MA), and viability and purity were assessed as described above. Viability of neutrophils was >95%, purity was 98–99%.
Neutrophils were counted and applied in the EZ-TAXIScan chemotaxis assay. […] The EZ-TAXIScan chamber (Effector Cell Institute, Tokyo) was assembled as described by the manufacturer. Cell migration was recorded every 15 seconds for 30 minutes at 37°C in a humidified environmental chamber. Coverslips and chips used in the chamber were coated with 1% BSA at room temperature for 1 hour. All glass coverslips were ultrasonicated and washed before use. Cell migration analysis was conducted with MATLAB software. Cell tracks were subsequently used to compute the chemotaxis index (CI) and speed for each tracked cell at each time step, as well as the average CI and average speed for each experiment.

[1] = Table 1, neutrophils pretreated with cyclosporine H (FPR1 inhibitor), 5 experiments
[2] = Table 3, in the presence of cyclosporine H (FPR1 inhibitor), 2-3 experiments
[3] = human neutrophils pretreated with cyclosporine H

Compound	Chemotactic response	Chemotaxis Index (CI)	Speed [μm/minute]	also measured
CCCCC/C=C\C[C@@H](O)/C=C/C=C/C=C\[C@@H](O)CCCC(=O)O [LTB4, leukotriene B4, reference compound]	–	–	–	Chemotaxis Index (CI), Cyclosporine H [1]: 0.49 ± 0.01; Speed, Cyclosporine H [1]: 9.23 ± 0.07 μm/minute; Chemotaxis Index (CI), Control (Table 1, 5 experiments): 0.51 ± 0.01; Speed, Control (Table 1, 5 experiments): 9.68 ± 0.30 μm/minute
GSVQPQQLPQFEEIRNLALQ [alpha-gliadin synthetic library peptide]	+++	0.34 ± 0.01	8.10 ± 0.18	Chemotaxis Index (CI), Cyclosporine H [2]: 0.02 ± 0.01; Speed, Cyclosporine H [2]: 0.30 ± 0.06 μm/minute; Chemotaxis Index (CI), Control (Table 3, 2-3 experiments): 0.33 ± 0.07; Speed, Control (Table 3, 2-3 experiments): 7.90 ± 0.87 μm/minute
LQELCCQHLWQIPEQSQCQA [alpha-gliadin synthetic library peptide]	++	0.18	8.85	–
MVRVPVPQLQPQNPSQQHPQ [alpha-gliadin synthetic library peptide]	++	0.30 ± 0.01	6.68 ± 1.92	Chemotaxis Index (CI), Cyclosporine H [2]: 0.03 ± 0.01; Speed, Cyclosporine H [2]: 0.45 ± 0.11 μm/minute; Chemotaxis Index (CI), Control (Table 3, 2-3 experiments): 0.28 ± 0.03; Speed, Control (Table 3, 2-3 experiments): 7.50 ± 1.95 μm/minute
PFPQPQLPYLQPQPFRPQQP [alpha-gliadin synthetic library peptide]	++	0.21 ± 0.01	9.94 ± 0.09	–
PPYCTIVPFGIFGTNYR [alpha-gliadin synthetic library peptide]	++	0.29 ± 0.01	8.55 ± 0.11	–
PQNPSQQHPQEQVPLVQQQQ [alpha-gliadin synthetic library peptide]	++	0.23	6.73	–
PQQPISQQQQQQQQQQQQQQ [alpha-gliadin synthetic library peptide]	++	0.29	7.62	–
QIPEQSQCQAIHNVVHAIIL [alpha-gliadin synthetic library peptide]	+++	0.33	8.64	–
QQHNIAHGRSQVLQQSTYQL [alpha-gliadin synthetic library peptide]	+++	0.28 ± 0.01	10.17 ± 1.45	Chemotaxis Index (CI), Cyclosporine H [2]: 0.05 ± 0.02; Speed, Cyclosporine H [2]: 0.48 ± 0.19 μm/minute; Chemotaxis Index (CI), Control (Table 3, 2-3 experiments): 0.27 ± 0.02; Speed, Control (Table 3, 2-3 experiments): 6.65 ± 0.33 μm/minute
QQYPLGQGSFRPSQQNPLAQ [alpha-gliadin synthetic library peptide]	++	0.21	8.08	–
QVLQQSTYQLLQELCCQHLW [alpha-gliadin synthetic library peptide]	++	0.33	7.49	–
SSQVSFQQPLQQYPLGQGSF [alpha-gliadin synthetic library peptide]	++	0.19	7.65	–
cyclosporine H [reference compound]	–	–	–	effect on PT-gliadin-induced chemotaxis [3]: completely abrogated; effect on fMLP-mediated neutrophil chemotaxis [3]: abolished; effect on leukotriene B4 (LTB4)-mediated chemotaxis [3]: remained unaffected
